Reference: ChEMBL document CHEMBL5653635, “Induction of apoptosis and cell cycle arrest by CP-358,774, an inhibitor of epidermal growth factor receptor tyrosine kinase” (Cancer Res, 1997)
Calls of active or inactive are those of the source. The calls are words filed in the database; no cut-off is given here.

Experiments:
[1] = target: Insulin-like growth factor 1 receptor (Homo sapiens) (UniProt P08069); assay: Inhibition of IGF-IR (711 to 1377 residues) (unknown origin) expressed in baculovirus-infected Sf9 cells at 20 uM incubated for 8 mins by colorimetry based assay relative to control
DiFi [2] = assay: Induction of apoptosis in human DiFi cells assessed as accumulation of cells at sub-G1 phase at 1 uM measured after 24 hrs by PI staining based flow cytometry analysis; assay type: functional, cell-based
DiFi [3] = assay: Induction of cell cycle arrest in human DiFi cells assessed as increase in cell percentage in G1 phase at 0.1 uM measured after 24 hrs by BrdUrd incorporation based flow cytometry analysis (reference value: 82 +- 0.9%); assay type: functional
DiFi [4] = assay: Induction of cell cycle arrest in human DiFi cells assessed as accumulation of cells at S phase at 1 uM incubated for 24 hrs by PI staining based flow cytometry analysis (reference value: 8 %); assay type: functional
DiFi [5] = assay: Induction of apoptosis in human DiFi cells assessed as increase in number of necrotic cells at 1 uM incubated for 24 hrs by annexin V-FITC and PI staining based flow cytometry analysis; assay type: functional, cell-based
[6] = target: Insulin receptor (Homo sapiens) (UniProt P06213); assay: Inhibition of insulin induced phosphorylation of insulin receptor in serum starved human HN5 cells at 1 uM preincubated for 1 hr followed by insulin stimulation and measured after 5 mins by immunoblot analysis; assay type: cell-based; conditions: time 65.0 min
DiFi [7] = assay: Induction of apoptosis in human DiFi cells assessed as DNA fragmentation at 1 uM measured after 24 hrs in presence of IGF-1 by agarose gel electrophoresis analysis; assay type: functional, cell-based
DiFi [8] = assay: Induction of apoptosis in human DiFi cells assessed as protection of annexin V-FITC binding at 1 uM incubated for 24 hrs in presence of IGF-1 by annexin V-FITC and PI staining based flow cytometry analysis relative to control; assay type: functional
DiFi [9] = assay: Induction of apoptosis in human DiFi cells at 1 uM measured after 24 hrs by annexin V-FITC and PI staining based flow cytometry analysis (reference value: 6%); assay type: functional
[10] = Antiproliferative activity against raf-transformed mouse NIH3T3 cells assessed as inhibition of cell viability; assay type: toxicity, cell-based
[11] = target: Insulin receptor (Homo sapiens) (UniProt P06213); assay: Inhibition of human recombinant insulin receptor expressed in baculovirus at 10 uM incubated for 8 mins by colorimetry based assay
DiFi [12] = assay: Induction of cell cycle arrest in human DiFi cells assessed as accumulation of cells at S phase at 1 uM incubated for 24 hrs in presence of IGF-1 by PI staining based flow cytometry analysis (reference value: 8 %); assay type: functional
[13] = target: Insulin-like growth factor 1 receptor (Homo sapiens) (UniProt P08069); assay: Inhibition of IGF-IR (711 to 1377 residues) (unknown origin) expressed in baculovirus-infected Sf9 cells at 10 uM incubated for 8 mins by colorimetry based assay
HN5 [14] = assay: Antiproliferative activity against human HN5 cells assessed as inhibition of cell viability at 50 nM; assay type: functional, cell-based
DiFi [15] = assay: Induction of apoptosis in human DiFi cells assessed as accumulation of cells at sub-G1 phase at 1 uM measured after 24 hrs in presence of IGF-1 by PI staining based flow cytometry analysis; assay type: functional, cell-based
HN5 [16] = assay: Induction of cell cycle arrest in human HN5 cells assessed as reduction in accumulation of cells in S phase at 1 uM measured after 48 hrs by PI staining based flow cytometry analysis (reference value: 55%); assay type: functional; parameters: scale not given: the % may be the effect or the level left
HN5 [17] = assay: Induction of cell cycle arrest in human HN5 cells assessed as increase in accumulation of cells in G1 phase at 1 uM measured after 48 hrs by PI staining based flow cytometry analysis (reference value: 24%); assay type: functional
DiFi [18] = assay: Induction of apoptosis in human DiFi cells assessed as DNA fragmentation by measuring DNA ladders at 1 uM measured after 24 hrs by agarose gel electrophoresis analysis; assay type: functional, cell-based
DiFi [19] = assay: Induction of cell cycle arrest in human DiFi cells assessed as accumulation of cells at G2 phase at 1 uM incubated for 24 hrs by PI staining based flow cytometry analysis (reference value: 28%); assay type: functional
DiFi [20] = assay: Induction of cell cycle arrest in human DiFi cells assessed as decrease in cell percentage in S phase at 0.1 uM measured after 24 hrs by BrdUrd incorporation based flow cytometry analysis (reference value: 14 +- 0.5%); assay type: functional; parameters: scale not given: the % may be the effect or the level left
DiFi [21] = assay: Induction of apoptosis in human DiFi cells assessed as decrease in number of normal cells at 1 uM incubated for 24 hrs by annexin V-FITC and PI staining based flow cytometry analysis; assay type: functional, cell-based
DiFi [22] = assay: Induction of PARP cleavage in human DiFi cells assessed as increase in Mr 85000 fragments at 8 ug/ml […] incubated for 24 hrs by Western blotting analysis; assay type: functional, cell-based; conditions: dose 8.0 µg/ml
DiFi [23] = assay: Induction of PARP cleavage in human DiFi cells assessed as decrease in Mr 116000 fragments at 1 uM incubated for 24 hrs by Western blotting analysis; assay type: functional, cell-based
DiFi [24] = assay: Induction of PARP cleavage in human DiFi cells assessed as increase in Mr 85000 fragments at 1 uM incubated for 24 hrs by Western blotting analysis; assay type: functional, cell-based
DiFi [25] = assay: Induction of apoptosis in human DiFi cells at 1 uM incubated for 24 hrs by PI staining based flow cytometry analysis (reference value: 2.3%); assay type: functional
HN5 [26] = assay: Antiproliferative activity against human HN5 cells assessed as inhibition of cell viability at 250 nM relative to control; assay type: functional
DiFi [27] = assay: Induction of cell cycle arrest in human DiFi cells assessed as decrease in cell percentage in S phase at 1 uM measured after 24 hrs by BrdUrd incorporation based flow cytometry analysis (reference value: 14 +- 0.5%); assay type: functional; parameters: scale not given: the % may be the effect or the level left
DiFi [28] = assay: Induction of apoptosis in human DiFi cells at 1 uM incubated for 24 hrs in presence of IGF-1 by PI staining based flow cytometry analysis (reference value: 2.3%); assay type: functional
DiFi [29] = assay: Induction of apoptosis in human DiFi cells at 1 uM measured after 24 hrs in presence of IGF-1 by annexin V-FITC and PI staining based flow cytometry analysis (reference value: 6%); assay type: functional
DiFi [30] = assay: Induction of cell cycle arrest in human DiFi cells assessed as accumulation of cells at G1 phase at 1 uM incubated for 24 hrs in presence of IGF-1 by PI staining based flow cytometry analysis (reference value: 64%); assay type: functional
DiFi [31] = assay: Induction of cell cycle arrest in human DiFi cells assessed as accumulation of cells at G1 phase at 1 uM incubated for 24 hrs by PI staining based flow cytometry analysis (reference value: 64%); assay type: functional
[32] = target: Insulin-like growth factor 1 receptor (Homo sapiens) (UniProt P08069); assay: Inhibition of insulin induced phosphorylation of IRS-1 in serum starved human HN5 cells at 1 uM preincubated for 1 hr followed by insulin stimulation and measured after 5 mins by immunoblot analysis; assay type: cell-based; conditions: time 65.0 min
DiFi [33] = assay: Induction of PARP cleavage in human DiFi cells assessed as increase in Mr 85000 fragments at 1 uM incubated for 24 hrs in presence of IGF-1 by Western blotting analysis; assay type: functional, cell-based
DiFi [34] = assay: Induction of cell cycle arrest in human DiFi cells assessed as accumulation of cells at G2 phase at 1 uM incubated for 24 hrs in presence of IGF-1 by PI staining based flow cytometry analysis (reference value: 28%); assay type: functional
DiFi [35] = assay: Induction of PARP cleavage in human DiFi cells assessed as decrease in Mr 116000 fragments at 1 uM incubated for 24 hrs in presence of IGF-1 by Western blotting analysis; assay type: functional, cell-based
DiFi [36] = assay: Induction of cell cycle arrest in human DiFi cells assessed as increase in cell percentage in G1 phase at 1 uM measured after 24 hrs by BrdUrd incorporation based flow cytometry analysis (reference value: 82 +- 0.9%); assay type: functional
HN5 [37] = assay: Induction of apoptosis in human HN5 cells assessed as decrease in cell population at 1 uM measured after 24 hrs by PI staining based flow cytometry analysis; assay type: functional
DiFi [38] = assay: Antiproliferative activity against human DiFi cells assessed as percentage of viable cells at 1 uM measured after 24 hrs by coulter counter method (reference value: 98+/-0.8%); assay type: functional

Sequence of Insulin-like growth factor 1 receptor (Homo sapiens) (P08069 31-736 limits assumed): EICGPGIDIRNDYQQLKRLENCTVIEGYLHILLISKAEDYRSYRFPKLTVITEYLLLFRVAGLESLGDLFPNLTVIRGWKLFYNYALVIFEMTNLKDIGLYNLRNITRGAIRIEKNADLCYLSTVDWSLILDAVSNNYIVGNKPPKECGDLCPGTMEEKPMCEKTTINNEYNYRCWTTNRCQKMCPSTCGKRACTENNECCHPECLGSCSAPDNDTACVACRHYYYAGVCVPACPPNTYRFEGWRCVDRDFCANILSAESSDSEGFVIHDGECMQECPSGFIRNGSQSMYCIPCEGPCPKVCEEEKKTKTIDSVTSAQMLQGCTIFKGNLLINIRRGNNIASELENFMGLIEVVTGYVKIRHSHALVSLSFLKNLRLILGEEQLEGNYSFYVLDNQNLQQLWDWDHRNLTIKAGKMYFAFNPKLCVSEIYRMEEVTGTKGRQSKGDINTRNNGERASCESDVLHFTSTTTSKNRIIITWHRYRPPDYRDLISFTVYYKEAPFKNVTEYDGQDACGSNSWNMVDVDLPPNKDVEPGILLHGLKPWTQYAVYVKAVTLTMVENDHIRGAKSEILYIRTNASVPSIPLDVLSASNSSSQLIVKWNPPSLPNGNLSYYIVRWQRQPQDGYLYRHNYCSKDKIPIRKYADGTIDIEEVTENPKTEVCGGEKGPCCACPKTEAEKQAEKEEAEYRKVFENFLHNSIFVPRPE
Sequence of Insulin-like growth factor 1 receptor (Homo sapiens) (P08069 741-1367 limits assumed): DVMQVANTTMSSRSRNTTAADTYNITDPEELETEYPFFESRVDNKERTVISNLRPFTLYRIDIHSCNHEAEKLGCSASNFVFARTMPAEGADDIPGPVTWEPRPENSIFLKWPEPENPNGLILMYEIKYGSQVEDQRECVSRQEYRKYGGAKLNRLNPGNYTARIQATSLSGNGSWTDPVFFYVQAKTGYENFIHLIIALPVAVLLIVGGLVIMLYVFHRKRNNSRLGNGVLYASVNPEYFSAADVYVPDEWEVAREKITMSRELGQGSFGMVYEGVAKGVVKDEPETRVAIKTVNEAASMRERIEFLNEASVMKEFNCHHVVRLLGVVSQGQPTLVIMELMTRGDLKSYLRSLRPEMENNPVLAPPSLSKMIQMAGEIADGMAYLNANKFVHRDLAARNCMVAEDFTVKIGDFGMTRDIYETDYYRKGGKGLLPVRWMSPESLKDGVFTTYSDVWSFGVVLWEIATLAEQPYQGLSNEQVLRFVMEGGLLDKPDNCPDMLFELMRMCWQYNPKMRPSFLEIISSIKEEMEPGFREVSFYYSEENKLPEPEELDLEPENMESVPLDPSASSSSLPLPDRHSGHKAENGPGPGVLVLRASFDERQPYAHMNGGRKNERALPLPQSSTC
Sequence of Insulin receptor (Homo sapiens) (P06213 28-758 limits assumed): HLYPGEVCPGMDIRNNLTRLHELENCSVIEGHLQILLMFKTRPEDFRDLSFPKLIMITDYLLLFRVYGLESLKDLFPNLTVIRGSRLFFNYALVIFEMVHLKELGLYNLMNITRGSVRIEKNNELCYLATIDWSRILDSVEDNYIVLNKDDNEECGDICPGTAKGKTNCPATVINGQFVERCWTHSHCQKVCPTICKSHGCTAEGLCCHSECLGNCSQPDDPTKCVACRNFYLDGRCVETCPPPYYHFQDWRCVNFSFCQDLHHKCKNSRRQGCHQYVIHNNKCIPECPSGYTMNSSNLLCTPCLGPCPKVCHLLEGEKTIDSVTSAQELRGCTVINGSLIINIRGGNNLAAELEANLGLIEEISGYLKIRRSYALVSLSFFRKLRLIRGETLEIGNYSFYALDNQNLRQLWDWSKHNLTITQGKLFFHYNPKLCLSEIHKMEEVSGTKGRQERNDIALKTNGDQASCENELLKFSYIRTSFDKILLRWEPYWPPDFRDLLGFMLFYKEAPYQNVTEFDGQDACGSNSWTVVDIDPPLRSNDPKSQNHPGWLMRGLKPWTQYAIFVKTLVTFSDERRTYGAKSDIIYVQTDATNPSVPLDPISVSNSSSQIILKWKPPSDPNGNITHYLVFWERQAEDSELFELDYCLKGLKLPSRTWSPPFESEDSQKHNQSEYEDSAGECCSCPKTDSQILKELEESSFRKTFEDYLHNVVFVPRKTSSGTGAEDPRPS
Sequence of Insulin receptor (Homo sapiens) (P06213 763-1382 limits assumed): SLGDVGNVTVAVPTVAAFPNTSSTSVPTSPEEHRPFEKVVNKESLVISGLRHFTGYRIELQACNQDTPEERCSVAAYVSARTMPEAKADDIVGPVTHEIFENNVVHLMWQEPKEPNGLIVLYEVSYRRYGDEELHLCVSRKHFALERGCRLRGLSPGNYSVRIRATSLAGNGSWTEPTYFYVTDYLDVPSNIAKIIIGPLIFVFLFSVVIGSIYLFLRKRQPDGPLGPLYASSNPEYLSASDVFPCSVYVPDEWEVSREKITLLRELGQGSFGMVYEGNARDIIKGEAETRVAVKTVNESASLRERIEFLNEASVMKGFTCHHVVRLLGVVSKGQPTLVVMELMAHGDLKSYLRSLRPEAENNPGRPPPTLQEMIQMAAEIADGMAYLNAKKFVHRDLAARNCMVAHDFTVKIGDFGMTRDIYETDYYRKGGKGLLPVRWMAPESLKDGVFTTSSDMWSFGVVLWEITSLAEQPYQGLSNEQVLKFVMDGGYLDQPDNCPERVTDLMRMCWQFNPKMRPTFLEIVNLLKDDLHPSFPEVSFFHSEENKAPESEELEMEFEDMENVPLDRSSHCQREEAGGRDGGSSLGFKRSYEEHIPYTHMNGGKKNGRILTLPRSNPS

## N#CC(C#N)=Cc1cc(O)c(O)c(O)c1
[1]
  inhibition: 50%

## C#Cc1cccc(Nc2ncnc3cc(OCCOC)c(OCCOC)cc23)c1 [ERLOTINIB]
DiFi [2]
  Activity: Active
DiFi [3]
  Activity: 85%
DiFi [4]
  Activity: 5%
DiFi [5]
  Activity: inactive
[6]
  inhibition: inactive
DiFi [7]
  Activity: inactive
DiFi [8]
  Activity: 100%
DiFi [9]
  Activity: 21%
[10]
  IC50: 7 µM
[11]
  inhibition: inactive
DiFi [12]
  Activity: 2%
[13]
  inhibition: inactive
HN5 [14]
  Activity: Active
DiFi [15]
  Activity: inactive
HN5 [16]
  Activity: 24%
HN5 [17]
  Activity: 56%
DiFi [18]
  Activity: Active
DiFi [19]
  Activity: 18%
DiFi [20]
  Activity: 9%
DiFi [21]
  Activity: Active
DiFi [22]
  Activity: Active
DiFi [23]
  Activity: Active
DiFi [24]
  Activity: Active
DiFi [25]
  Activity: 17%
HN5 [26]
  Activity: 100%
DiFi [27]
  Activity: 0.7%
DiFi [28]
  Activity: 7.4%
DiFi [29]
  Activity: 6%
DiFi [30]
  Activity: 77%
DiFi [31]
  Activity: 77%
[32]
  inhibition: inactive
DiFi [33]
  Activity: inactive
DiFi [34]
  Activity: 21%
DiFi [35]
  Activity: inactive
DiFi [36]
  Activity: 95%
HN5 [37]
  Activity: Active
DiFi [38]
  Activity: 97%
